Experimental data reported in US7678787B2, “Pyrrolobenzodiazepine pyridine carboxamides and derivatives as follicle-stimulating hormone receptor antagonists” (Wyeth, priority 2005, dated 2010).
Values joined by “and” are separate entries in the source; they are usually repeats but may differ in a detail not shown here. Equal values may be shown once.

Key:
[1] = target: T1, human FSH receptor (Homo sapiens, UniProt P23945); assay: FSH receptor-dependent CRE-luciferase reporter gene assay (CHO FSH-R 6CRE-Luc cells); assay type: cell-based; settings: dose-response format in presence of EC50 of purified human FSH; * n=3, ** n=2 averages
T1 construct: host or cells: CHO-K1 (CHO FSH-R 6CRE-Luc, 1D7 cells)
T1 sequence (P23945 18-695): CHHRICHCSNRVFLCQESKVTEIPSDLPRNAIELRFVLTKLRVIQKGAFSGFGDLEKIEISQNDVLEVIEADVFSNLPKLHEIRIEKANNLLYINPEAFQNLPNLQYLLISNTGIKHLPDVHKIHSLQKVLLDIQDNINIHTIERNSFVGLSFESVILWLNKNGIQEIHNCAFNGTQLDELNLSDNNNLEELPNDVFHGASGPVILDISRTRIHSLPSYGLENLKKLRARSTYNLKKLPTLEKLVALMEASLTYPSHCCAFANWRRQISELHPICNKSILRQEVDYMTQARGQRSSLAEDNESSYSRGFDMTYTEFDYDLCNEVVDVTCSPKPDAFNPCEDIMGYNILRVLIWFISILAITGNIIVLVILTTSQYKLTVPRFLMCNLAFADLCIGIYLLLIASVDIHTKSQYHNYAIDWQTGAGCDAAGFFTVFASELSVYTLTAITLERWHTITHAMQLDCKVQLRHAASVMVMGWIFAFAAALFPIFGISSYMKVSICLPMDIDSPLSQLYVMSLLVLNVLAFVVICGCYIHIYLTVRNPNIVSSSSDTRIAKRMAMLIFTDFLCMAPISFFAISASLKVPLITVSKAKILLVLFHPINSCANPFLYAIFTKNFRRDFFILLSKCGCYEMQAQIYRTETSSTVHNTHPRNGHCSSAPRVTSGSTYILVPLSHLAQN
In short: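 CHO-K1 cells stably expressing the recombinant human FSH receptor and a luciferase reporter controlled by 6 cAMP response elements were seeded at 50,000 cells/100 μl/well in 96-well white opaque plates. Antagonists were tested in dose-response against the EC50 of purified human FSH for 4 hours at 37° C, and luciferase chemiluminescence was read with a LucScreen kit.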

[2] = target: T2, hFSH-R (Homo sapiens, UniProt P23945); assay: cAMP accumulation (RIA) in CHO-3D2 cells (hFSH-R), hFSH-induced; assay type: cell-based; settings: inhibition of cAMP accumulation induced by hFSH at EC20, CHO-3D2 cells
T2 construct: expressed in transfected cells; host or cells: CHO-3D2 cells (CHO-K1 parental line)
T2 sequence (P23945 18-695): T1 sequence (P23945 18-695)
Method: IN VITRO BIO-ASSAY OF AGONISTS AND ANTAGONISTS TO THE FSH RECEPTOR. SELECTIVITY AND DEPENDENCY OF AGONISTS AND ANTAGONISTS TO THE FSH RECEPTOR
Compound Vehicle: Stock compounds were solubilized in 100% DMSO (Sigma-Aldrich Chemical Co., St. Louis, Mo.) at a concentration of 30 mM. The compounds subsequently were diluted in sterile assay medium consisting of Opti-MEM® I (Invitrogen/Life Technologies, Carlsbad, Calif.) with 0.1% (w/v) BSA (Sigma-Aldrich) prior to use in the bio-assay. The final concentration of DMSO in the assay was 0.1%.
Plated cells are then incubated at 37° C. in a humidified 5% CO2/95% air atmosphere.
Assay: On the day of the assay, cells were washed three times with 100 μl/well of assay medium consisting of Opti-MEM® I (Invitrogen/Life Technologies) with 0.1% (w/v) BSA (Sigma-Aldrich). Medium was removed and 100 μl of assay medium was added to each well. Plates were incubated for an additional 30 minutes at 37° C. […] Reactions were terminated by the addition of 50 μl of 0.2N hydrochloric acid to each well and cAMP-accumulation was measured by radioimmunoassay (RIA) using a commercially available kit (Amersham Biosciences, Piscataway, N.J.).
All test compounds were evaluated in a dose-response paradigm ranging from 0.01 to 30 μM. Controls and test compounds were evaluated in quadruplicate in a 96-well format.
Along with the test compounds, FSH was run also as a postive control in the agonist mode using concentrations ranging from 0.1-1000 ng/ml.
Data were analyzed by one-way analysis of variance and significant differences between treatments and control determined by Least Significant Difference test.
Test compounds were compared to the effect of purified human FSH.

[3] = target: T1, human FSH receptor; assay: FSH receptor-dependent CRE-luciferase reporter gene assay (CHO FSH-R 6CRE-Luc cells); assay type: cell-based; settings: 2-dose format; test concentration in parentheses = 30 μM; percent inhibition of response to EC50 of FSH; read-out: CRE % inhibition

| SMILES | IC50 [1] | melting point | IC50 [2] | inhibition at 30 µM [3] |
| --- | --- | --- | --- | --- |
| O=C(NCc1cccnc1)c1ccc2n1Cc1ccccc1N(C(=O)c1ccc([N+](=O)[O-])cc1)C2 [Example 99] |  |  |  | 35% |
| O=C(NCc1cccnc1)c1ccc2n1Cc1ccccc1N(C(=O)c1ccc(-c3ccccc3/C=N/O)cc1)C2 [Example 62] | 1060 nM | 165 to 167 °C | 550 nM |  |
| O=C(NCc1cccnc1)c1ccc2n1Cc1ccccc1N(C(=O)c1ccc(NCCCc3ccccc3)nc1)C2 [Example 127] |  |  |  | 9% |
| O=C(NCc1cccnc1)c1ccc2n1Cc1ccccc1N(C(=O)c1cccnc1)C2 [Example 124] |  |  |  | 7% |
| CC(C)C(=O)N1Cc2ccc(C(=O)NCc3cccnc3)n2Cc2ccccc21 [Example 150] |  |  |  | 20% |
| O=C(NCc1cccnc1)c1ccc2n1Cc1ccccc1N(C(=O)c1ccc(N3CCCCC3)cc1)C2 [Example 113] | 8840 nM | 196 to 197 °C (dec.) | 800 nM |  |
| O=C(NCc1cccnc1)c1ccc2n1Cc1ccccc1N(C(=O)c1ccc(-c3ccccc3CN3CCCCC3)cc1)C2 [Example 44] | 2940 nM | 199 to 202 °C | 1710 nM |  |
| NC(Cc1ccccc1-c1ccc(C(=O)N2Cc3ccc(C(=O)NCc4cccnc4)n3Cc3ccccc32)cc1)=NO [Example 18] | 41 nM | 131 to 134 °C | 70 nM |  |
| COCc1ccccc1-c1ccc(C(=O)N2Cc3ccc(C(=O)NCc4cccnc4)n3Cc3ccccc32)cc1 [Example 61] | 100 nM | 156 to 157 °C | 50 nM |  |
| O=C(NCc1cccnc1)c1ccc2n1Cc1ccccc1N(C(=O)c1ccc(-n3cccn3)cc1)C2 [Example 112] | 7990 nM | 107 °C | 1300 nM |  |
| CS(=O)(=O)c1ccccc1-c1ccc(C(=O)N2Cc3ccc(C(=O)NCc4cccnc4)n3Cc3ccccc32)cc1 [Example 15] | 1100 nM | 153 to 156 °C | 370 nM |  |
| O=C(NCc1cccnc1)c1ccc2n1Cc1ccccc1N(C(=O)c1ccc(-c3ccccc3CN3CCOCC3)cc1)C2 [Example 43] | 257 nM | 191 to 194 °C | 140 nM |  |
| CC(O)c1ccccc1-c1ccc(C(=O)N2Cc3ccc(C(=O)NCc4ccc[n+]([O-])c4)n3Cc3ccccc32)cc1 (stereo not shown) [Example 55, 10-{[2′-(1-HYDROXYETHYL)-1,1′-BIPHENYL-4-YL]CARBONYL}-N-[(1-OXIDOPYRIDIN-3-YL)METHYL]-10,11-DIHYDRO-5H-PYRROLO[2,1-C][1,4]BENZODIAZEPINE-3-CARBOXAMIDE] | 1050 nM | 213 to 215 °C | 620 nM |  |
| COc1ccccc1-c1ccc(C(=O)N2Cc3ccc(C(=O)NCc4cncc(Br)c4)n3Cc3ccccc32)cc1 [Example 6, N-[(5-BROMOPYRIDIN-3-YL)METHYLL]-10-[(2′-METHOXY-1,1′-BIPHENYL-4-YL)CARBONYL]-10,11-DIHYDRO-5H-PYRROLO[2,1-C][1,4]BENZODIAZEPINE-3-CARBOXAMIDE] | 8900 nM | 180 to 184 °C | 5400 nM |  |
| O=C(NCc1cccnc1)c1ccc2n1Cc1ccccc1N(C(=O)c1ccc(-c3ncccn3)cc1)C2 [Example 105] | 2480 nM | 234 to 236 °C | 200 nM |  |
| COC(=O)c1ccccc1-c1ccc(C(=O)N2Cc3ccc(C(=O)NCc4cccnc4)n3Cc3ccccc32)cc1 [Example 63] | 1180 nM | 179.5 to 180.5 °C | 380 nM |  |
| O=C(NCc1cccnc1)c1ccc2n1Cc1ccccc1N(C(=O)c1ccc(-c3cccnc3)cc1)C2 [Example 108] | 9530 nM | 120 to 125 °C | 1800 nM |  |

Second part, the molecule after the results:

| IC50 [1] | melting point | IC50 [2] | inhibition at 30 µM [3] | SMILES |
| --- | --- | --- | --- | --- |
| 1040 nM | 162 to 163 °C | 900 nM |  | O=Cc1ccccc1-c1ccc(C(=O)N2Cc3ccc(C(=O)NCc4cccnc4)n3Cc3ccccc32)cc1 [Example 56] |
| 920 nM | 148 to 150 °C | 80 nM |  | Cc1ccccc1-c1ccc(C(=O)N2Cc3ccc(C(=O)NCc4cccnc4)n3Cc3ccccc32)cc1C [Example 3] |
| 2120 nM | 108 to 112 °C | 700 nM |  | Cc1cc(C(=O)N2Cc3ccc(C(=O)NCc4cccnc4)n3Cc3ccccc32)ccc1-c1ccccc1 [Example 57] |
| 540 nM | 123 to 127 °C | 500 nM |  | COc1ccccc1-c1ccc(C(=O)N2Cc3ccc(C(=O)NCc4cccnc4)n3Cc3ccccc32)cc1 [Example 8] |
| 5600 nM | 176 to 177 °C | 2400 nM |  | COc1cccc(-c2ccc(C(=O)N3Cc4ccc(C(=O)NCc5cccnc5)n4Cc4ccccc43)cc2C)c1 [Example 70] |
| 2190 nM | 115 to 120 °C | 370 nM |  | NCc1ccccc1-c1ccc(C(=O)N2Cc3ccc(C(=O)NCc4cccnc4)n3Cc3ccccc32)cc1 [Example 46] |
| 7090 nM | 149 to 150 °C | 2000 nM |  | CNCc1ccccc1-c1ccc(C(=O)N2Cc3ccc(C(=O)NCc4cccnc4)n3Cc3ccccc32)cc1 [Example 42] |
| 3580 nM | 95 to 104 °C | 780 nM |  | CN(C)Cc1ccccc1-c1ccc(C(=O)N2Cc3ccc(C(=O)NCc4cccnc4)n3Cc3ccccc32)cc1 [Example 45] |
| 950 nM | 170 to 173 °C | 800 nM |  | Cc1ccccc1-c1ccc(C(=O)N2Cc3ccc(C(=O)NCc4ccc[n+]([O-])c4)n3Cc3ccccc32)cc1C [Example 4] |
| 900 nM | 171 to 172 °C | 400 nM |  | CC(=O)c1ccccc1-c1ccc(C(=O)N2Cc3ccc(C(=O)NCc4cccnc4)n3Cc3ccccc32)cc1C [Example 29] |
| 116 nM | 122 to 126 °C and 118 °C and 122 °C | 100 nM |  | CC(O)c1ccccc1-c1ccc(C(=O)N2Cc3ccc(C(=O)NCc4cccnc4)n3Cc3ccccc32)cc1 (racemic) [Example 52] |
| 2000 nM | 176 to 177 °C | 800 nM |  | Cc1ccccc1-c1ccc(C(=O)N2Cc3ccc(C(=O)NCc4cccnc4)n3Cc3ccccc32)cc1 [Example 28] |
| 2920 nM | 150 to 151 °C | 300 nM |  | Cc1cccnc1-c1ccc(C(=O)N2Cc3ccc(C(=O)NCc4cccnc4)n3Cc3ccccc32)cc1 [Example 109] |
| 1600 nM | 139 to 143 °C | 300 nM |  | CCOc1ccccc1-c1ccc(C(=O)N2Cc3ccc(C(=O)NCc4cccnc4)n3Cc3ccccc32)cc1C [Example 48] |
| 650 nM | 119 to 124 °C | 200 nM |  | COc1ccccc1-c1ccc(C(=O)N2Cc3ccc(C(=O)NCc4cccnc4)n3Cc3ccccc32)cc1C [Example 47] |
| 10500 nM | 176 to 177 °C | 3100 nM |  | Cc1cc(C(=O)N2Cc3ccc(C(=O)NCc4cccnc4)n3Cc3ccccc32)ccc1I [Example 74] |
| 1000 nM | 165 to 167 °C | 200 nM |  | COc1cc(C(=O)N2Cc3ccc(C(=O)NCc4cccnc4)n3Cc3ccccc32)ccc1-c1ccccc1C [Example 1] |
